Paper PMC6469676 (SLAS discovery : advancing life sciences R & D, 2018)
pIC50: −log10 of the molar value.

Columns and labels:
SNV = type: cell-based, Sin Nombre virus
in vitro = settings: African green monkey
[1] = test system: SNV^R18 on DAF-functionalized beads; type: binding
[2] = test system: SNV-induced cAMP production in CHO-A24 cells; type: cell-based
integrin αIIbβ3 = integrin αIIbβ3 (Homo sapiens, UniProt P05106+P08514); type: cell-based
Sin Nombre virus (SNV) = type: cell-based; settings: 10 µM
Hantaan virus (HTN) = type: cell-based; settings: 10 µM
[3] = test system: SNV^F18 bound to Tanoue B cells; settings: read-out: IC50, competition binding vs SNV^F18 bound to Tanoue B cells

integrin αIIbβ3, sequence (P08514 32-887 limits assumed): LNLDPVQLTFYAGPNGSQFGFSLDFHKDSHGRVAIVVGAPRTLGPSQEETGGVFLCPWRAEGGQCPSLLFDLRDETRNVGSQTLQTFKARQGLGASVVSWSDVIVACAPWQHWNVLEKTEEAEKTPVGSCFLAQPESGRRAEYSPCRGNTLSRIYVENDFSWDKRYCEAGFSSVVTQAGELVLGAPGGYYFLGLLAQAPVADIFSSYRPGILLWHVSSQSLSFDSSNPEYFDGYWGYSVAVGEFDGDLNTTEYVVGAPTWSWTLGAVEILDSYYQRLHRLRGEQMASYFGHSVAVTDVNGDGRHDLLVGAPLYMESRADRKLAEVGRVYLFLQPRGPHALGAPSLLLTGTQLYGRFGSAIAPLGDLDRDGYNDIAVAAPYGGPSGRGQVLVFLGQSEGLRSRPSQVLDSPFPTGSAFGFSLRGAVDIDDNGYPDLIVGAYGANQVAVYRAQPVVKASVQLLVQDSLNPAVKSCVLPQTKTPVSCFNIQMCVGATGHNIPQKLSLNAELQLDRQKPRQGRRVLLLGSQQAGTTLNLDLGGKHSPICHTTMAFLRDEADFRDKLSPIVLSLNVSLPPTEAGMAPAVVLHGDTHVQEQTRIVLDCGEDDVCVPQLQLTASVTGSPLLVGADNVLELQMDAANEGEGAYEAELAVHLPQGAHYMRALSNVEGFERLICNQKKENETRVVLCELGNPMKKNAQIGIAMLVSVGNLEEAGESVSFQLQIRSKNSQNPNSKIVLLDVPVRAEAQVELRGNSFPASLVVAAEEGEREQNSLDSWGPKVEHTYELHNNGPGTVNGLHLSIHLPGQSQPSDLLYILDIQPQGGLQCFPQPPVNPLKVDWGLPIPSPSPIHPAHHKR
integrin αIIbβ3, sequence (P08514 891-1039 partner limits assumed): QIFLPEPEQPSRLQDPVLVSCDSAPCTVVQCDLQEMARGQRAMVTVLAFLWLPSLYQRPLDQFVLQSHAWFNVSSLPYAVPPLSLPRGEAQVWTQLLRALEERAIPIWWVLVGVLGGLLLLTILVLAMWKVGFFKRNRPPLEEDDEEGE
integrin αIIbβ3, sequence (P05106 27-788): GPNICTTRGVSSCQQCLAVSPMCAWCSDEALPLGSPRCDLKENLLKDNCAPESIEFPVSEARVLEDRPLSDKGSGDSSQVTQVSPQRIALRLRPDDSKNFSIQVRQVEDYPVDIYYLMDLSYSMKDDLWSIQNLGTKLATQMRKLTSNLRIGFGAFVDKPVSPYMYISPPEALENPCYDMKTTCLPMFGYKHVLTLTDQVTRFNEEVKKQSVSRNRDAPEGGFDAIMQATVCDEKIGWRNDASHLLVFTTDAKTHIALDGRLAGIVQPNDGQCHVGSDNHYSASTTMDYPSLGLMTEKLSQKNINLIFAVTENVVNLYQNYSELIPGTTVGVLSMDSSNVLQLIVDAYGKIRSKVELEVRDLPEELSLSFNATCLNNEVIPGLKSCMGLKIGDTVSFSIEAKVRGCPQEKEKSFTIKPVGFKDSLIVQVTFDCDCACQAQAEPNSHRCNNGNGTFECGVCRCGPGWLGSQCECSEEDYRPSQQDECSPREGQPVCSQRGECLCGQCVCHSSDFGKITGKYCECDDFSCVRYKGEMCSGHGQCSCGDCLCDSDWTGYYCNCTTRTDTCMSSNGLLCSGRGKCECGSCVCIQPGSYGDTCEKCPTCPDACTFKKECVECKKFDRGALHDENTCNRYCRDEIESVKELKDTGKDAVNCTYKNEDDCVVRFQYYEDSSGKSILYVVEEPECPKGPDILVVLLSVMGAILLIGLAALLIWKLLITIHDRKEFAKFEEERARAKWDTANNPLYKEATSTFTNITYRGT

In the case of `O=C(Nc1cc(C(=O)Nc2ccc(S(=O)(=O)O)cc2S(=O)(=O)O)cc(C(=O)Nc2ccc(S(=O)(=O)O)cc2S(=O)(=O)O)c1)Nc1cc(C(=O)Nc2ccc(S(=O)(=O)O)cc2S(=O)(=O)O)cc(C(=O)Nc2ccc(S(=O)(=O)O)cc2S(=O)(=O)O)c1` [NF449], the “reduction of viral N-protein relative to vehicle-treated cells” value (SNV) was > 80%.

For `COC(=O)Nc1nc2ccc(Sc3ccccc3)cc2[nH]1` [fenbendazole], the viability (in vitro) was ~70%.

For `Cc1cc2c(C(C)C)c(O)c(O)c(C=O)c2c(O)c1-c1c(C)cc2c(C(C)C)c(O)c(O)c(C=O)c2c1O` [gossypol], the “koff, drop in bead fluorescence” value [1] was ~ 0.25 and the viability (in vitro) was ~30%.

Work on `O=C(Nc1ccc([N+](=O)[O-])cc1Cl)c1cc(Cl)ccc1O` [niclosamide] yielded a viability (in vitro) of ~50%.

For `Cc1c(Cl)cccc1Nc1ccccc1C(=O)O` [tolfenamic acid], the “koff, drop in bead fluorescence” value [1] was ~ 0.25.

With GRGDSP the “effect on SNV-stimulated cAMP” value [2] was “did not affect SNV-stimulated cAMP response” and the “effect on SNV-induced PAC-1 staining” value (integrin αIIbβ3) was “inhibited PAC1 staining”.

In the case of antimycin, the “% inhibition of infection by SNV” value (Sin Nombre virus (SNV)) was ≥ 80%, the “% inhibition of infection by HTN” value (Hantaan virus (HTN)) was ≥ 80% and the “koff, drop in bead fluorescence” value [1] was ~ 0.25. For the same compound, the pIC50 [3] was 5.00, the “effect on SNV-stimulated cAMP” value [2] was “inhibited stimulation of cAMP” and the “effect on SNV-induced PAC-1 staining” value (integrin αIIbβ3) was “inhibited PAC-1 staining”. For the same compound, the “cytopathic effects after 24 hours” value (Vero E6 cells) was “minimal cytopathic effects”.

With tocopherol the “cytopathic effects after 24 hours” value (Vero E6 cells) was “minimal cytopathic effects”.
